The record followed here is US20080200693A1, “Derivatives of Aryl (or Heteroaryl) Azolylcarbinols (in Particular Cizolirtin Citrate) for the Treatment of Opioid Addiction” (LABORATORIOS DEL DR. ESTEVE S.A., priority 2004, published 2008).

This assay concerns male Swiss albino mice. As to the kind of experiment: Determination of withdrawal symptoms (naloxone-induced jumps and shakes in opioid-dependent mice). It counts as in vivo. The procedure: Pharmacodyn, 1971, 190, pages 213-218 in male Swiss albino mice (weight 20-25 g, Harlan Iberica, S. Feliu de Codinas, Barcelona, Spain).
Opioid dependency is developed in the mice by intraperitoneal administration of the opioid in a suitable dose known to those skilled in the art, e.g. 5 mg/kg/day for 4 consecutive days for morphine. Withdrawal symptoms are then induced by the intravenous administration of a suitable opioid antagonist in a dose known to those skilled in the art, for example, 2 mg/kg naloxone in case of morphine, 30 minutes after the administration of the final dose of the opioid is completed.
In the 30 minute period following the naloxone administration the mice show typical withdrawal symptoms, namely jumps and shakes (of the wet dog shake type), which are counted and registered.
The active substance is administered in combination with the opioid to the mice for 4 consecutive days. After the administration of 2 mg/kg naloxone 30 minutes after the administration of the final dose of the active substance in combination with the opioid has been completed, the mice are closely watched for withdrawal symptoms, namely jumps and shakes (of the wet dog shake type), which are then counted and registered.
The influence of the active substance in combination with an opioid on withdrawal symptoms has been determined as described above.

On to `CN1CC[C@]23c4c5ccc(O)c4O[C@H]2[C@@H](O)C=C[C@H]3[C@H]1C5` [Morphine], for which the “Number of Jumps” value (morphine 5 mg/kg/day s.c. over 4 days, 2 mg/kg naloxone 30 min after final dose, counted in the following 30 minute period) came to 6.6. Also, the Number of shakes (morphine 5 mg/kg/day s.c. over 4 days, 2 mg/kg naloxone 30 min after final dose, wet dog shake type, counted in the following 30 minute period) came to 16.3.

In the case of `CN(C)CCOC(c1ccccc1)c1ccnn1C.O=C(O)CC(O)(CC(=O)O)C(=O)O` (racemic) [Example 1, (±)-5-{α-[2-(dimethylamino)ethoxy]benzyl}-1-methyl-1H-pirazole citrate], the “withdrawal symptoms usually associated with the administration of opioids (morphine)” value (co-administration with morphine, administered amount of the opioid not reduced, mice) is on record as “significantly reduced”.
